Reference: PubChem BioAssay AID179 (DTP/NCI, 2004)
Activity calls are given as the source filed them.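 How the source made its calls: active means compounds giving half or more protection of infected cells from virus-caused growth loss, again on retest; inactive means the rest.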 *1 amine or outer side, *2 acyl side, *3 side chain or, on linkers, in order; H or OH if unused. Where a SMILES comes first, the peptide text is derived from it. [ ]: non-standard residue; d: D form. The star is where a group is joined. X3 = CC(=O)N(C)SCC(N[*:1])C(=O)[*:2]; Cbz = O=C(OCc1ccccc1)*; Bn = c1ccc(C*)cc1

System: CEM cells HIV-1 protection, formazan growth assay
Test: NCI AIDS Antiviral Assay
Settings: for IC50: measured here: growth of uninfected CEM cells
In short: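 Human CEM cells, uninfected and HIV-1-infected, received five drug concentrations, and growth was read by soluble formazan assay. Compounds giving at least 50% protection were retested; reproducible 100% protection defined confirmed active.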

| SMILES | EC50 | IC50 | outcome |
| --- | --- | --- | --- |
| N#Cc1c(NC(=S)NC(=O)c2ccccc2)nc2c(c1-c1ccccc1)CCCC2 | > 200 µM | 141 µM |  |
| CC(C)(C)C1(c2ccc(C3(c4ccccc4)Oc4ccccc4S3)[nH]2)Oc2ccccc2S1 (centres undefined) |  |  | inactive |
| Cn1c2c(O)c(O)ccc2c(=O)c2c(O)cc3c(c21)C=CC(C)(C)O3 | > 200 µM | > 200 µM |  |
| O=C(O)CCNC(=O)OCc1ccccc1 | > 200 µM | > 200 µM |  |
| CC(=O)O/N=C/c1ncccc1CO | > 490 µM | 389 µM |  |
| NC(=O)c1sc2nc3ccccc3n2c1N | > 200 µM | > 200 µM |  |
| C[C@H]1CCC2C(OC(=O)[C@@H]2CN(C)C)[C@]2(C)C(=O)C=CC12O (some centres undefined) |  |  | inactive |
| N=C(CN1CCCCC1)N1CCCCC1 | > 200 µM | > 200 µM |  |
| CCOC(=O)/C=C(\C)NCCSSCCN/C(C)=C/C(=O)OCC | > 200 µM | 50.1 µM |  |
| O=C(O)/C=C\CCCCCCCCC(=O)O | > 794 µM | > 794 µM |  |
| C=C1C(=O)c2cc3c(cc2C(c2cc(OC)c(OC)c(OC)c2)[C@@H]1C(=O)O)OCO3 (some centres undefined) |  |  | inactive |
| CCCCCCCCCCCCCCCCCCOP1(=O)OCCO1 | > 50.1 µM | > 50.1 µM |  |
| CCCCCCCCCCCCC(Br)C(=O)NCC(N)=O (centres undefined) |  |  | inactive |
| N=C(N)SCCc1ccncc1 | > 200 µM | 155 µM |  |
| NC1=NCC(CN2CCCCC2)O1 (centres undefined) | > 200 µM | > 200 µM |  |
| CSC1=NC=C(C#N)C2=NC(c3cccs3)NN12 (centres undefined) | > 339 µM | 20.4 µM |  |
| COC(=O)C(=O)C(C(C)=O)C(=O)C(=O)Nc1ccc(C)cc1C (centres undefined) | > 112 µM | > 112 µM |  |
| O=C(NCCCCl)c1c(O)c2ccccc2[nH]c1=O | > 200 µM | 81.3 µM |  |
| CN(C)C(=S)/N=c1\ss/c(=N\S(=O)(=O)c2ccccc2)n1C |  |  | inactive |
| NC(CC(=O)O)C(=O)O (centres undefined) | > 38.9 µM | > 38.9 µM |  |
| CC(c1ccccc1)N1OC1(c1ccccc1)c1ccccc1 (centres undefined) | > 105 µM | 14.5 µM |  |

| SMILES | EC50 | IC50 | outcome |
| --- | --- | --- | --- |
| COc1cc(CC(=O)O)c(C(=O)c2cccc([N+](=O)[O-])c2)cc1OC | > 200 µM | 37.2 µM |  |
| CCOC(=O)C1NCCc2c1[nH]c1ccccc21 (centres undefined) | > 67.6 µM | 44.7 µM |  |
| CC(C)(C)[Si](C)(C)OCC1OC(n2ccc(=O)[nH]c2=O)C(CCN(O)CC2OC(n3ccc(=O)[nH]c3=O)C(O[Si](C)(C)C(C)(C)C)C2O[Si](C)(C)C(C)(C)C)C1O[Si](C)(C)C(C)(C)C (centres undefined) | > 126 µM | 105 µM |  |
| COc1cc2c(cc1OC)C1C(=O)c3c(O)cc4c(c3OC1CO2)C=CC(C)(C)O4 (centres undefined) | > 1.82 µM | 0.891 µM |  |
| [CH3][Ge]([CH3])([CH2]CC#N)[S]c1ccccc1 | > 200 µM | 20 µM |  |
| CC(=O)Oc1c(OC(C)C)cc(=O)n2ccsc12 | > 200 µM | 102 µM |  |
| CCCCCCCCSCC1OC2OC3C(CSCCCCCCCC)OC(OC4C(CSCCCCCCCC)OC(OC5C(CSCCCCCCCC)OC(OC6C(CSCCCCCCCC)OC(OC7C(CSCCCCCCCC)OC(OC8C(CSCCCCCCCC)OC(OC1C(OS(=O)(=O)O)C2OS(=O)(=O)O)C(OS(=O)(=O)O)C8OS(=O)(=O)O)C(OS(=O)(=O)O)C7OS(=O)(=O)O)C(OS(=O)(=O)O)C6OS(=O)(=O)O)C(OS(=O)(=O)O)C5OS(=O)(=O)O)C(OS(=O)(=O)O)C4OS(=O)(=O)O)C(OS(=O)(=O)O)C3OS(=O)(=O)O (centres undefined) | 2.57 µM | 50.1 µM |  |
| CSc1ncnc2c1C[P+](Cc1ccccc1)(c1ccccc1)CC2 (centres undefined) | > 562 µM | > 562 µM |  |
| O=C1CC(=O)N(c2ccccc2)N1/C(=C/c1ccccc1)c1ccccc1 | > 200 µM | 9.33 µM |  |
| NCCCNOCCCN | > 200 µM | > 200 µM |  |
| Cc1nc(C)c(N2CCN(C(=O)NC(CCC(=O)O)C(=O)O)CC2)c(=O)[nH]1 (centres undefined) | > 200 µM | > 200 µM |  |
| Cc1ccc(S(=O)(=O)Nc2ccccc2SSc2ccccc2NS(=O)(=O)c2ccc(C)cc2)cc1 | > 200 µM | 4.57 µM |  |
| CC1(C)COC(c2cccnc2/C=N/O)=N1 | > 1150 µM | > 200 µM |  |
| CCOC(=O)C12CCCC1(O)N(NC(=O)c1cccc(Cl)c1)C(C)=C2C(=O)OC (centres undefined) | > 427 µM | 123 µM |  |
| CSC(SC)=C(C#N)C(=O)Nc1ccc(C)cc1 | > 200 µM | 3.63 µM |  |
| OC1(c2ccccc2)N=C(c2ccccc2)c2ccccc2-n2cccc21 (centres undefined) | > 200 µM | > 200 µM |  |
| O=C(NC(=O)c1c(F)cccc1F)Nc1ncc(Cl)cc1Cl | > 200 µM | > 200 µM |  |
| Cc1cc(C)nc(NS(=O)(=O)c2ccc(Nc3c4ccc(Cl)cc4nc4c(C(=O)NCCN(C)C)cccc34)cc2)n1 | > 214 µM | 89.1 µM |  |
| O=[N+]([O-])c1ccc(/C=C/c2ccc([N+](=O)[O-])cc2S(=O)(=O)O)c(S(=O)(=O)O)c1 |  |  | inactive |
| COC(OC)C1OCC(n2cc(F)c(=O)[nH]c2=O)C1O (centres undefined) | > 200 µM | > 200 µM |  |
| OCCCCCNc1ccnc2cc(Cl)ccc12 | > 832 µM | 47.9 µM |  |

| SMILES | EC50 | IC50 | outcome |
| --- | --- | --- | --- |
| CC1=CC=NN2C(=O)[C@H](C)C2C1 (some centres undefined) | > 1510 µM | > 1510 µM |  |
| COC1c2ccccc2C2C(Cl)(Cl)C23c2ccccc2C13 (centres undefined) | > 12 µM | > 12 µM |  |
| O=C(O)c1cccc[c]1[Sb](=[O])([OH])[OH] | > 200 µM | 87.1 µM |  |
| O=C1c2ccccc2C(=O)c2c(O)c(NCCCNCCO)cc(O)c21 |  |  | inactive |
| O=C1c2ccccc2C(=O)N1CCc1c[nH]c2ccccc12 | > 200 µM | > 200 µM |  |
| O=[N+]([O-])c1cc(S(=O)(=O)c2ccc(S)c([N+](=O)[O-])c2)ccc1S |  |  | inactive |
| CCOC(=S)SSC(=S)OCC | > 200 µM | 107 µM |  |
| Cc1c2ccccc2nc(CSc2ccccc2)[n+]1[O-] | 9.55 µM | 178 µM |  |
| O=C1c2ccccc2-n2nnnc2C2CSCN12 (centres undefined) | > 200 µM | > 200 µM |  |
| COC(=O)CCC1=CCC2(SC)C(=O)Nc3cccc1c32 (centres undefined) | > 200 µM | > 200 µM |  |
| COC(=O)c1cc([O-])c2sc(C)c(C)[n+]2n1 | > 1050 µM | 724 µM |  |
| CC(=O)N(C)SCC(NC(=O)C(Cc1ccccc1)NC(=O)OCc1ccccc1)C(=O)NC(Cc1ccccc1)C(=O)NC(Cc1c[nH]c2ccccc12)C(=O)NC(CCCCNC(=O)OCc1ccccc1)C(=O)NC(C(=O)NC(CSN(C)C(C)=O)C(=O)NC(C(N)=O)C(C)OCc1ccccc1)C(C)OCc1ccccc1 (centres undefined) (Cbz-F[X3]FWK(Cbz)T(Bn)[X3]T(Bn)-NH2; configuration not given here) | 55 µM | 85.1 µM |  |
| COc1ccc(CC2=CC(=O)C(=O)C=C2C)cc1 | > 56.2 µM | 30.2 µM |  |
| O=CC(O)C(O)C(O)C(O)COP(=O)(O)Cc1ccccc1 (centres undefined) | > 200 µM | > 200 µM |  |
| COc1ccc(-c2c3ccccc3c(-c3ccc(OC)cc3)c3ccccc23)cc1 | > 2.69 µM | > 2.69 µM |  |
| CC1CC2OC(/C=C/C=C/C=C/C=C\C=C\C(O)=C3/C(=O)C(C(C)C)N(C)C3=O)C(O)C2O1 (centres undefined) | > 200 µM | 107 µM |  |
| CC(C)C(Sc1nc(-c2ccccc2)c(-c2ccccc2)[nH]1)C(=O)NN (centres undefined) | > 10.2 µM | 4.9 µM |  |
| O=C1CCC(=O)C(C(=O)CCC(=O)Nc2ccc(Cl)cc2)C1 (centres undefined) |  |  | inactive |
| CCOC(=S)NP(=O)(NC(=S)OCC)NC(=S)OCC | > 200 µM | > 200 µM |  |
| CN(C)c1ccc(-n2cccc2)cc1 | > 200 µM | > 200 µM |  |
| COc1cccc(/C=C\c2ccc(O)cc2)c1 | > 200 µM | 4.27 µM |  |

| SMILES | EC50 | IC50 | outcome |
| --- | --- | --- | --- |
| CC1(C(=O)O)CCC2(C)CCC3(C)C(=CC(=O)C4C5(C)CCC(OC6OC(C(=O)O)C(O)C(O)C6OC6OC(C(=O)O)C(O)C(O)C6O)C(C)(C)C5CCC43C)C2C1 (centres undefined) | > 302 µM | > 302 µM |  |
| NC(CSS(=O)(=O)O)=NCCc1ccccn1 | > 200 µM | > 200 µM |  |
| C=CC[C@@]1(OC(C)=O)C(=O)C(=O)OC1C1COC(C)(C)O1 (some centres undefined) | > 200 µM | 11.2 µM |  |
| O=C1NC(N2CCCC(CO)C2)=N/C1=C\c1ccccc1 (centres undefined) | > 200 µM | > 200 µM |  |
| CSCCCNC(=O)c1csc([C@@H](CSC)NC(=O)CCNC(=O)[C@@H](NC(=O)OCC(Br)(Br)Br)C(C)O)n1 (some centres undefined) | > 166 µM | > 166 µM |  |
| CC(=O)Nc1ccc(-c2nnc(SCC(=O)Nc3ccccc3C)o2)cc1 | > 67.6 µM | 61.7 µM |  |
| Cc1ccnc(NC(=O)Nc2cc(Cl)ccc2Cl)c1 | > 200 µM | > 200 µM |  |
| O=c1nc2cc(-c3ccccc3)[nH]c2nn1-c1c(Cl)cc(Cl)cc1Cl | > 91.2 µM | 1.17 µM |  |
| Cc1cn(C(CO)OC(CO)CN(O)C2C3CC4CC(C3)CC2C4)c(=O)[nH]c1=O (centres undefined) | > 200 µM | > 200 µM |  |
| CSc1n[nH]c(NC(=O)c2cccc(C(F)(F)F)c2)n1 | > 44.7 µM | > 44.7 µM |  |
| CC(c1ccccc1)N1O[C@]12CC[C@@]1(C)C(CCCC13OCCO3)C2 (some centres undefined) |  |  | inactive |
| O=C1c2ccccc2C(=O)N1CCSCC(CO)SCCN1C(=O)c2ccccc2C1=O (centres undefined) | 191 µM | > 200 µM |  |
| O=C(CNc1nccs1)Nn1cnc2ccc(S(=O)(=O)Nc3nccs3)cc2c1=O | > 200 µM | > 200 µM |  |
| c1ccc(C2OCCO2)c(OCCOc2cc(OCCOc3ccccc3C3OCCO3)c(OCCOc3ccccc3C3OCCO3)cc2OCCOc2ccccc2C2OCCO2)c1 | > 7.94 µM | > 7.94 µM |  |
| CCOC(=O)C1=C(C)/C(=C/c2[n-]c(C)c(C(=O)OCC)c2C)N=C1C.CCOC(=O)C1=C(C)/C(=C/c2[n-]c(C)c(C(=O)OCC)c2C)N=C1C.[Cu+2] | > 200 µM | > 200 µM |  |
| Cc1ccc(CCC(=O)C(=O)O)s1 | > 479 µM | > 479 µM |  |
| Cc1cn(C2CC(N=[N+]=[N-])C(COC(=O)C3OC(C)(C)O[C@@]34CC[C@H]3[C@@H]5CCC6=CC(=O)C=C[C@]6(C)[C@H]5[C@@H](O)C[C@@]34C)O2)c(=O)[nH]c1=O (some centres undefined) | 0.0589 µM | 11.5 µM |  |
| CCCOc1ccc(/C(Cl)=C(\C=O)c2ccc(OC)c(OC)c2)cc1OCCC | > 4.79 µM | > 4.79 µM |  |
| O=C(Nc1ccc([N+](=O)[O-])cc1)C(=O)C(C(=O)c1ccccc1F)C1OC(=O)c2ccccc21 (centres undefined) | > 204 µM | 8.71 µM |  |
